Assay results as given in patent US6124431A, “Peptide derivatives” (Teikoku Hormone Mfg. Co., Ltd., priority 1993, dated 2000).

System: mouse leukemia P388 cells
Assay: Assay of antitumor activity (increase in life span of mice implanted with P388 leukemia)
Format: in vivo
Conditions: CDF1 mice, P388 cells implanted i.p.; compound i.p. on day 1 and day 5; observed for 60 days; ILS relative to dolastatin 10 = 100
Experimental: (1) Assay of antitumor activity
0.1 ml (10^6 cells/mouse) portions of mouse leukemia P388 cells were implanted intraperitoneally into 7-week-old CDF1 mice. […] From the results were calculated increases in life span (ILS, %) according to the following equation. In the following equation, T means median survival days of the chemical administration group, and C means median survival days of the control group. [formula]
Antitumor activity is shown as the relative ratio in the case where the ILS of dolastatin 10 is supposed to be 100.

**Q.** With dolastatin 10 as the substance, how does the “Antitumor activity (relative ratio of ILS, ILS of dolastatin 10 supposed to be 100)” value read?
**A.** 100
